Data: BindingDB's records for doi:10.1016/j.ejmech.2019.111626 (University of Illinois At Chicago, 2019)

Molecular target: 5-hydroxytryptamine receptor 2A (Homo sapiens, UniProt P28223)
Experiment: Agonist activity at recombinant human 5HT2A receptor expressed in Flp-In-293 cells assessed as increase in calcium influx measured for 300 secs by Fluo-4 dye based FLIPR assay

Sequence of 5-hydroxytryptamine receptor 2A (P28223 whole entry): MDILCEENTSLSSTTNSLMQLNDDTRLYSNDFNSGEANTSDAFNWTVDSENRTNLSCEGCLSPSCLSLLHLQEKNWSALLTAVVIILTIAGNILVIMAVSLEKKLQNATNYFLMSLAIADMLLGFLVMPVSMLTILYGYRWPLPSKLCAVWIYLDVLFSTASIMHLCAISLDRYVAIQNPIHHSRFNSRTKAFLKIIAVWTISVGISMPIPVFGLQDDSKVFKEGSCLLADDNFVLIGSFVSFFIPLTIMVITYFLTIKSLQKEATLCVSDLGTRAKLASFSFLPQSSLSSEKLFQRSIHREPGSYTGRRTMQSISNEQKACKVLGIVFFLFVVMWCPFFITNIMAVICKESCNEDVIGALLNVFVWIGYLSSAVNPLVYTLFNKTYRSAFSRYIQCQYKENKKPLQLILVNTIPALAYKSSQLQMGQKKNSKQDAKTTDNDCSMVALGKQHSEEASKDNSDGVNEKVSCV

NC[C@H]1C[C@]1(F)c1cccc(F)c1
EC50: 2.69 nM
